Like-named read-outs stand apart in the source and are kept apart here.
Tests used:
[1] = test system: BxPC-3 cells (KRAS-wild-type PDAC); experiment: 2D cytotoxicity, MTT assay, BxPC-3; format: cell-based; settings: Homo sapiens, read-out: IC50 (µM) ± S.D. BxPC-3 (2D)
Description: (§1) All newly developed 1,2,4-amino-triazine compounds were screened for their cytotoxic activity against two human PDAC cell lines, namely, a KRAS-wild-type PDAC cell line (BxPC-3 cells) and a KRAS-mutant PDAC cell line (PSN-1 cells). […] The cytotoxicity parameters, expressed in terms of IC50 and obtained after 72 h of drug exposure by MTT assay, are reported in Table 3.
(§2) All tested compounds were dissolved in DMSO just before the experiment, and a calculated amount of drug solution was added to the cell growth medium to a final solvent concentration of 0.5%, which had no detectable effects on cell viability.
(§3) Human pancreatic PSN-1 and BxPC-3 carcinoma cell lines were obtained by American Type Culture Collection (ATCC, Rockville, MD, USA). Cell lines were maintained in the logarithmic phase at 37 °C in a 5% carbon dioxide atmosphere using RPMI-1640 medium (EuroClone) containing 10% fetal calf serum (EuroClone, Milan, Italy), antibiotics (50 units/mL penicillin and 50 μg/mL streptomycin) and 2 mM l-glutamine.
(§4) The growth inhibitory effect on tumor cells was evaluated by means of MTT assay. Briefly, 5 × 10^3 cells/well were seeded in 96-well microplates in a growth medium (100 μL). After 24 h, the medium was removed and replaced with a fresh one containing the compound to be studied at the appropriate concentration. Triplicate cultures were established for each treatment. After 72 h, each well was treated with 10 μL of a 5 mg/mL MTT saline solution, and following 5 h of incubation, 100 μL of a sodium dodecyl sulfate (SDS) solution in HCl 0.01 M was added. After overnight incubation, cell growth inhibition was detected by measuring the absorbance of each well at 570 nm using a Bio-Rad 680 microplate reader. The mean absorbance for each drug dose was expressed as a percentage of the control untreated well absorbance and plotted vs. drug concentration. IC50 values, the drug concentrations that reduce the mean absorbance at 570 nm to 50% of those in the untreated control wells, were calculated by the four-parameter logistic (4-PL) model. The evaluation was based on means from at least four independent experiments.

[2] = molecular target: recombinant human HSP90 (Homo sapiens, UniProt P07900); experiment: HSP90 inhibition assay (Transcreener ADP kit); format: biochemical; settings: for inhibition of HSP90 enzyme activity: 1.5 µM compound; for IC50: isolated HSP90, four-parameter logistic model, mean of 3 independent experiments, read-out: IC50 (µM) ± S.D. HSP90
Description: Since the ATP binding pockets in PDKs and HSP90 are similar and taking into consideration that these 1,2,4-triazine derivatives conserved a chemical scaffold resembling that of the well-known Hsp90 inhibitor Ganetespib, the most performant PDK inhibitors 4d, 4f, 4h, 5d, 5f, 5h and 5j were also screened for their ability to target HSP90.
The in vitro inhibitory activity of tested compounds on recombinant human HSP90 was assessed by The Transcreener™ ADP kit (Bellbrook Labs, Madison, WI, USA) according to the manufacturer’s protocol as previously described.

[3] = test system: PSN-1 spheroids; experiment: 3D spheroid cytotoxicity, acid phosphatase (APH) assay, PSN-1; format: cell-based; settings: Homo sapiens, PSN1, 72 h, acid phosphatase (APH) test, read-out: IC50 (µM) ± S.D. PSN-1 (3D spheroids)
Description: Prompted by these encouraging results, we also screened the newly developed 1,2,4-triazine compounds against 3D spheroids of PDAC KRAS wild-type and mutant cells, to further estimate their anticancer potential in a more predictive environment. […] The PDAC cancer spheroids were treated with tested compounds for 72 h, and cell viability was assessed by means of the acid phosphatase (APH) assay (Table 3). The efficacy of gemcitabine as well as of DCA and DAP was assessed under the same experimental conditions.
Spheroid cultures were obtained by seeding 2.5 × 10^3 PSN-1 cancer cells/well in a round-bottom non-treated tissue culture 96-well plate (Greiner Bio-one, Kremsmünster, Austria) in phenol red-free RPMI-1640 medium (Sigma Chemical Co, St. Louis, MO, USA) containing 10% fetal calf serum and supplemented with 20% methylcellulose stock solution.
An APH-modified assay was used for determining cell viability in 3D spheroids, as previously described. Briefly, the pre-seeded spheroids were treated with fresh medium containing the compound to be studied at the appropriate concentration (range 2.5–200 μM). Triplicate cultures were established for each treatment. After 72 h, each well was treated with 100 μL of the assay buffer (0.1 M sodium acetate, 0.1% Triton-X-100, supplemented with ImmunoPure p-nitrophenyl phosphate; Sigma Chemical Co.) and, following 3 h of incubation, 10 μL of 1 M NaOH solution were added. The inhibition of the cell growth induced by the tested compounds was detected by measuring the absorbance of each well at 405 nm, using a Bio-Rad 680 microplate reader. The mean absorbance for each drug dose was expressed as a percentage of the control untreated well absorbance (T/C) and plotted vs. drug concentration. IC50 values, the drug concentrations that reduce the mean absorbance at 405 nm 50% of those in the untreated control wells, were calculated by the four-parameter logistic (4-PL) model. The evaluation was based on means from at least four independent experiments.

[4] = test system: BxPC-3 spheroids; experiment: 3D spheroid cytotoxicity, acid phosphatase (APH) assay, BxPC-3; format: cell-based; settings: Homo sapiens, 72 h, acid phosphatase (APH) test, read-out: IC50 (µM) ± S.D. BxPC-3 (3D spheroids)
[5] = molecular target: T1, recombinant human PDK4 (Homo sapiens, UniProt Q16654); experiment: PDK4 ADPGlo Kinase Assay; format: biochemical; settings: 1.5 µM compound, 30 min, room temperature
T1 construct: purchased Abcam
Description: The ability of the tested compounds to hamper the activity of PDK1-4 isoforms was firstly evaluated by means of a chemioluminescent assay, the ADPGlo™ Kinase Assay kit (Promega Corporation, Madison, WI, USA). The results obtained by incubating PDK1-4 isoforms for 30 min at room temperature with 1.5 µM of tested compounds are depicted in Figure 3 panel A as a heat-map summary of the inhibition percentage on PDK1-4 enzymatic activity. All the newly synthesized compounds were able to inhibit the pyruvate dehydrogenase kinases, although to a different extent and showing a preferential activity towards the PDK1 and PDK4 isoforms. […] Conversely, all tested 1,2,4-triazin-3-amines were barely effective in blocking PDK2 activity at 1.5 µM concentration. In addition, IC50 values on the PDK1 isoform were also calculated for all synthesized derivatives and the results are shown in Table 2.
(§5) The in vitro inhibitory activity of tested compounds on recombinant human PDK1-4 isoforms (Abcam, Cambridge, MA, USA) was evaluated by using the ADPGlo™ Kinase Assay kit from Promega (Promega Corporation, Madison, WI, USA) following the instructions of the manufacturer, as previously described.

[6] = test system: PSN-1 cells (KRAS-mutant PDAC); experiment: 2D cytotoxicity, MTT assay, PSN-1; format: cell-based; settings: Homo sapiens, read-out: IC50 (µM) ± S.D. PSN-1 (2D)
Description: as §1, §2, §3, §4

[7] = molecular target: T2, recombinant human PDK1 (Homo sapiens, UniProt Q15118); experiment: PDK1 ADPGlo Kinase Assay; format: biochemical; settings: for inhibition of PDK1 enzymatic activity: 1.5 µM compound, 30 min, room temperature; for IC50: isolated PDK1 isoform, four-parameter logistic model, mean of 3 independent experiments, read-out: IC50 (µM) ± S.D. PDK1
T2 construct: purchased Abcam
Description: The ability of the tested compounds to hamper the activity of PDK1-4 isoforms was firstly evaluated by means of a chemioluminescent assay, the ADPGlo™ Kinase Assay kit (Promega Corporation, Madison, WI, USA).
as §5

[8] = BXPC-3, 72 h exposure, MTT test, 2D culture
[9] = PSN1, 72 h exposure, MTT test, 2D culture

T1 sequence (Q16654 whole entry): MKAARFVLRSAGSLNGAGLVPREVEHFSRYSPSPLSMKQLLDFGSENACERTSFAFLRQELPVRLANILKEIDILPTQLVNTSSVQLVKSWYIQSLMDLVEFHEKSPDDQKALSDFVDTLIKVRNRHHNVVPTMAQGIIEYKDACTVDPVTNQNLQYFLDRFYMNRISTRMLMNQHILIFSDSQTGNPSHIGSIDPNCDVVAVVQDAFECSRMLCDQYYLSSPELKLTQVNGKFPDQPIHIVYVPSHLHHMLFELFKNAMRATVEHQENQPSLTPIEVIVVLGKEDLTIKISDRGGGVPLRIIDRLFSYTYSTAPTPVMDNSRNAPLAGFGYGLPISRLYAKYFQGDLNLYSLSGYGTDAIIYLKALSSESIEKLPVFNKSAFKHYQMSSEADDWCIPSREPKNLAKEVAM
T2 sequence (Q15118 29-436): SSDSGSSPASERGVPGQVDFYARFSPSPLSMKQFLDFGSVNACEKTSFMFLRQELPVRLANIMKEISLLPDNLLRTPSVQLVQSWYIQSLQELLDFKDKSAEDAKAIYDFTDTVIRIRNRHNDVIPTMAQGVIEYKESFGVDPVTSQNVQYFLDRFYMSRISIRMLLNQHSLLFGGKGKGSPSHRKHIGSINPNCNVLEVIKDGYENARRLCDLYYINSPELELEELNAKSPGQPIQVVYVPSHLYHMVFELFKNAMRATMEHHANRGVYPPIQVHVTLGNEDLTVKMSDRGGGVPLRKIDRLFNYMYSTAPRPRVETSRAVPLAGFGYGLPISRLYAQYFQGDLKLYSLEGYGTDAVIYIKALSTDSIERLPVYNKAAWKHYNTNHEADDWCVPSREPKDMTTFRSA

Row | Structure (SMILES) | inhibition of HSP90 enzyme activity [2] | IC50 [2] [µM] | inhibition of PDK4 enzymatic activity [5] | inhibition of PDK1 enzymatic activity [7] | IC50 [7] [µM] | melting point [°C] | IC50 [1, 8] [µM] | IC50 [3] [µM] | IC50 [4] [µM] | IC50 [6, 9] [µM] | IC50 ([1]; BXPC-3, 72 h) [µM] | IC50 ([6]; PSN1, 72 h) [µM]
1 | Cn1cc(-c2nnc(N)nc2-c2cn(C)c3ncc(Br)cc23)c2cc(Br)ccc21 [4d, 6-(5-Bromo-1-methyl-1H-indol-3-yl)-5-(5-bromo-1-methyl-1H-pyrrolo[2,3-b]pyridin-3-yl)-1,2,4-triazin-3-amine] | completely abolish | 0.06 ± 0.02 | completely suppress | totally hampered | 0.04 ± 0.02 |  | 30.2 ± 6.2 | 103 ± 9.1 | 176 ± 15.7 | 23.4 ± 3.7 |  | 
2 | Cn1cc(-c2nnc(N)nc2-c2cn(C)c3ncc(Br)cc23)c2cc(Cl)ccc21 [4f, 5-(5-Bromo-1-methyl-1H-pyrrolo[2,3-b]pyridin-3-yl)-6-(5-chloro-1-methyl-1H-indol-3-yl)-1,2,4-triazin-3-amine] | completely abolish | 0.1 ± 0.03 |  | totally hampered | 0.12 ± 0.04 | 262.1 | 18.4 ± 1.4 | 162 ± 6.8 | 169 ± 12.4 | 11.3 ± 1.8 |  | 
3 | Cn1cc(-c2nnc(N)nc2-c2cn(C)c3ncc(Br)cc23)c2cc(F)ccc21 [4h, 5-(5-Bromo-1-methyl-1H-pyrrolo[2,3-b]pyridin-3-yl)-6-(5-fluoro-1-methyl-1H-indol-3-yl)-1,2,4-triazin-3-amine] | completely abolish |  |  | totally hampered | 0.06 ± 0.02 | 155.6 | 22.3 ± 2.4 | 77.8 ± 3.8 | 188 ± 14.4 | 17.5 ± 2.8 |  | 
4 | Cn1cc(-c2nc(N)nnc2-c2cn(C)c3ncc(Br)cc23)c2cc(Br)ccc21 [5d, 5-(5-Bromo-1-methyl-1H-indol-3-yl)-6-(5-bromo-1-methyl-1H-pyrrolo[2,3-b]pyridin-3-yl)-1,2,4-triazin-3-amine] | completely abolish | 0.07 ± 0.01 | completely suppress | totally hampered | 0.05 ± 0.02 | 333.7 | 26.7 ± 6.1 | 216 ± 13.6 | 198 ± 14.2 | 21.3 ± 3.5 |  | 
5 | Cn1cc(-c2nc(N)nnc2-c2cn(C)c3ncc(Br)cc23)c2cc(Cl)ccc21 [5f, 6-(5-Bromo-1-methyl-1H-pyrrolo[2,3-b]pyridin-3-yl)-5-(5-chloro-1-methyl-1H-indol-3-yl)-1,2,4-triazin-3-amine] | completely abolish | 0.11 ± 0.04 | completely suppress | totally hampered | 0.08 ± 0.02 | 334.6 | 22.4 ± 3.2 | 213 ± 14.4 | 229 ± 17.2 | 21.3 ± 4.4 |  | 
6 | COc1ccc2c(c1)c(-c1nc(N)nnc1-c1cn(C)c3ncccc13)cn2C [5i, 5-(5-Methoxy-1-methyl-1H-indol-3-yl)-6-(1-methyl-1H-pyrrolo[2,3-b]pyridin-3-yl)-1,2,4-triazin-3-amine] |  |  |  |  | 0.31 ± 0.07 | 288.2 | 0.31 ± 0.07 | 112 ± 9.1 | 153 ± 10.3 | 14.9 ± 3.2 |  | 
7 | O=C(c1ccccc1)C(Cl)Cl [DAP, 2,2-dichloroacetophenone, reference compound] |  | 698 ± 83 |  |  | 212 ± 48 |  |  | 87.4 ± 8.9 | 78.2 ± 6.2 |  | 16.5 ± 0.9 | 10.2 ± 1.6

Second part, led by results:

Row | inhibition of HSP90 enzyme activity [2] | IC50 [2] [µM] | inhibition of PDK4 enzymatic activity [5] | inhibition of PDK1 enzymatic activity [7] | IC50 [7] [µM] | melting point [°C] | Structure (SMILES) | IC50 [1, 8] [µM] | IC50 [3] [µM] | IC50 [4] [µM] | IC50 [6, 9] [µM] | IC50 ([1]; BXPC-3, 72 h) [µM] | IC50 ([6]; PSN1, 72 h) [µM]
8 |  |  |  |  | 0.27 ± 0.08 | 304.5 | Cn1cc(-c2nc(N)nnc2-c2cn(C)c3ncccc23)c2cc(Br)ccc21 [5c, 5-(5-bromo-1-methyl-1H-indol-3-yl)-6-(1-methyl-1H-pyrrolo[2,3-b]pyridin-3-yl)-1,2,4-triazin-3-amine] | 13.7 ± 2.9 | 78.4 ± 5.8 | 156 ± 11.7 | 9.2 ± 1.9 |  | 
9 |  |  |  |  | 0.32 ± 0.1 | 310.3 | Cn1cc(-c2nc(N)nnc2-c2cn(C)c3ncccc23)c2cc(Cl)ccc21 [5e, 5-(5-Chloro-1-methyl-1H-indol-3-yl)-6-(1-methyl-1H-pyrrolo[2,3-b]pyridin-3-yl)-1,2,4-triazin-3-amine] | 16.5 ± 3.8 | 198 ± 12.4 | 200 ± 16.3 | 14.2 ± 3.1 |  | 
10 |  |  |  |  | 0.29 ± 0.1 | 281.4 | Cn1cc(-c2nc(N)nnc2-c2cn(C)c3ncccc23)c2cc(F)ccc21 [5g, 5-(5-Fluoro-1-methyl-1H-indol-3-yl)-6-(1-methyl-1H-pyrrolo[2,3-b]pyridin-3-yl)-1,2,4-triazin-3-amine] | 19.8 ± 3.2 | 130 ± 11.8 | 79.7 ± 11.4 | 15.2 ± 4.6 |  | 
